From PubChem BioAssay AID1259321 (Sanford-Burnham Center for Chemical Genomics, 2017)
The source made the active and inactive calls.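 Rule for the calls: active = half-maximal concentration for changing protein binding to DNA, from the fitted dose curve, below 10 micromolar; inactive = the rest.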

These compounds were tested against Nuclear receptor subfamily 1 group D member 1 (Homo sapiens) (UniProt P20393) (assay: Rev-erbα–DNA interaction modulators – biochemical, FITC-DNA, fluorescence polarization, dose response (AID 1259321)). Conditions: Rev-erb alpha-FITC-DNA binding.
Sequence of Nuclear receptor subfamily 1 group D member 1 (Homo sapiens) (P20393 whole entry, looked up): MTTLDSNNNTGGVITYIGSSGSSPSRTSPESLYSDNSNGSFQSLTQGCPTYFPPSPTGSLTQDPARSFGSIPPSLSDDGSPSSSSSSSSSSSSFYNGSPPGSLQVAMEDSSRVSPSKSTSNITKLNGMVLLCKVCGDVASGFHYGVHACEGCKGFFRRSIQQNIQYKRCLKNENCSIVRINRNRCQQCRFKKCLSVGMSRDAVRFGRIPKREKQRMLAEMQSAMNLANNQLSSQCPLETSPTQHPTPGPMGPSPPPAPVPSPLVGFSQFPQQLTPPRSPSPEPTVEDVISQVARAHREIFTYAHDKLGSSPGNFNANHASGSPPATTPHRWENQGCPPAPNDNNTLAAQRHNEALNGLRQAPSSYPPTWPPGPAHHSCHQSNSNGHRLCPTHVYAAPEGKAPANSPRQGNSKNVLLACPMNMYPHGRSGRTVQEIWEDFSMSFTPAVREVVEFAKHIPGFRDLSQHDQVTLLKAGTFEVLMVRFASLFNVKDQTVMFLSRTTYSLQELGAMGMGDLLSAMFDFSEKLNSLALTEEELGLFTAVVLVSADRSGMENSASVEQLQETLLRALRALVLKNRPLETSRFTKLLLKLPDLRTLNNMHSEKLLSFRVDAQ

Row | SMILES | IC50
1 | Cc1cccc(-c2nnn3c2nc(NCCc2ccc(S(N)(=O)=O)cc2)c2ccccc23)c1 | > 40 µM (inactive)
2 | CCN(CC)c1ccc2cc(C(=O)NCc3ccc(F)cc3)c(=N)oc2c1 | inactive
3 | CC(C)c1nc2sc3c(SCC(N)=O)ncnc3c2c2c1CCC2 | 3.43 µM
4 | COc1ccc(NC(=O)NNC(=O)COc2ccc3cc(Br)ccc3c2)c(OC)c1 | > 40 µM (inactive)
5 | CCCCOc1ccc(N(CC(=O)NC2CCCCC2)C(=O)c2snc(C(N)=O)c2N)cc1 | > 40 µM (inactive)
6 | COc1cc(C(=O)Nc2nnc(-c3sccc3C)s2)cc(OC)c1OC | 4.24 µM
7 | CCNc1ccc2noc3c2c1C(=O)c1ccccc1-3 | > 40 µM (inactive)
8 | COc1ccc(C(=O)c2ccc(OC)c(Br)c2)cc1Br | > 40 µM (inactive)
9 | CCOC(Cn1c(SCc2cc(C(C)=O)ccc2OC)nc2ccccc2c1=O)OCC | 9.39 µM
10 | COc1ccc(C(=O)NNC(=O)C(Cc2ccc(O)cc2)NC(=O)c2ccccc2NC(=O)c2ccc(OC)cc2)cc1 (stereo unspecified) | inactive
11 | CCc1cc2cc3c(cc2nc1SCC(=O)Nc1nccs1)OCO3 | > 40 µM (inactive)
12 | O=c1oc2c3c4c(cc2c(C(F)(F)F)c1CCN1CCOCC1)CCCN4CCC3 | inactive
13 | CCN1/C(=C/C=C/c2oc3ccc(-c4ccccc4)cc3[n+]2CC)Oc2ccc(-c3ccccc3)cc21 | > 40 µM (inactive)
14 | COc1ccc(C(=O)/C(C#N)=N/Nc2ccc([N+](=O)[O-])cc2)cc1 | > 40 µM (inactive)
15 | CN1C(=O)c2cccc3c(N)ccc(c23)C1=O | inactive
16 | COCCn1c(=NC(=O)CCS(=O)(=O)c2ccccc2)sc2cc(C(=O)OC)ccc21 | > 40 µM (inactive)
17 | Cc1cc2c(s1)c1cnn(Cc3c(Cl)ccc(C)c3F)c(=O)c1n2C | inactive
18 | CCCc1cc(=O)oc2cc(C)cc(OCC(=O)Nc3ccc(S(N)(=O)=O)cc3)c12 | > 40 µM (inactive)
19 | Cc1cc(C)cc(OCc2nc3ncc(Br)cc3[nH]2)c1 | 2.43 µM
20 | CCn1cc(/C=C/c2cc[n+](C)cc2)c2ccccc21 | 3.25 µM
21 | COc1ccc(-c2oc3ccccc3c(=O)c2OC(=O)c2ccc(C)cc2)cc1 | inactive

The remaining lines, values ahead:

Row | IC50 | SMILES
22 | 2.6 µM | COc1ccc(-n2nc(C(=O)NCC(=O)Nc3cccc(Cl)c3)c3ccccc3c2=O)cc1OC
23 | 3.24 µM | COc1ccc(-c2ccc3sc4ccccc4c(=O)c3c2)cn1
24 | 0.615 µM | Cc1cccc(NC(=O)CSc2ncnc3c2oc2ccccc23)c1
25 | > 40 µM (inactive) | CCN1/C(=C/c2ccc3cc(C)ccc3[n+]2CC)Sc2cc(C)ccc21
26 | 2.38 µM | COc1ccccc1NC(=O)c1sc2ncn(Cc3cccc4ccccc34)c(=O)c2c1C
27 | > 40 µM (inactive) | CC(C)Nc1nc(-c2cccnc2)nc(-c2ccc(Cl)cc2)c1C#N
28 | 5.63 µM | CN(CCC#N)c1ccc(/C=C(\C#N)c2ccccn2)cc1
29 | > 40 µM (inactive) | O=C(c1cc2cc(Cl)ccc2[nH]1)N1CCN(c2ccccn2)CC1
30 | 6.5 µM | Cc1ccc2cc(C#N)c(SCC(=O)N3CCCc4ccccc43)nc2c1
31 | 3.27 µM | CC(C)NC(=O)CSc1nc(-c2cccs2)cc(-c2ccccc2)c1C#N
32 | inactive | Cc1c(C2N3CC4(C)CN2CC(C)(C3)C4=O)c2ccccc2n1C (stereo unspecified)
33 | > 40 µM (inactive) | COc1ccc2cc(OCC(=O)NNC(=O)Nc3ccc(F)cc3)ccc2c1
34 | inactive | Cc1nc(-c2ccccc2)nc2[nH]c(-c3ccccc3)cc(=O)c12
35 | > 40 µM (inactive) | CC1(C)Cc2nc3sc4c(SCC(=O)NC(c5ccccc5)c5ccccc5)ncnc4c3cc2CO1
36 | 2.63 µM | O=C(NCc1ccccn1)c1ccc(Cn2c(=S)[nH]c3ccc(Br)cc3c2=O)cc1
37 | > 40 µM (inactive) | CCc1nc2ccccc2c(C(=O)OCc2nc3ccccc3c(=O)[nH]2)c1C
38 | 4.18 µM | Cc1nc(SCC(=O)NCc2ccccc2)c2oc3ccccc3c2n1
39 | > 40 µM (inactive) | O=C(CCn1c(SCC(=O)c2ccccc2)nc2ccccc2c1=O)NCc1ccc(F)cc1
40 | 3.36 µM | Cc1ccc(S(=O)(=O)c2nnn3c2nc(N2CCN(c4ccccn4)CC2)c2ccccc23)cc1C
41 | 6.81 µM | Fc1ccc(CSc2ncnc3c2oc2ccccc23)cc1
42 | > 40 µM (inactive) | Cc1cc(C)c(NC(=O)CSc2nc3ncc(Br)cc3[nH]2)c(C)c1
43 | 7.22 µM | Cc1cc(C)c2nc(SCC(=O)N3CC(=O)Nc4ccccc43)c(C#N)cc2c1
44 | 3.91 µM | COc1ccc(C)cc1NC(=O)c1cc2c(=O)n3ccccc3nc2n1C
45 | inactive | O=C1c2cccc3c(O)ccc(c23)C(=O)N1Cc1ccccc1
46 | 0.647 µM | COc1ccc2[nH]c(C(=O)Nc3ccc(C)c(F)c3)cc2c1
47 | 1.57 µM | CC(=O)c1cccc(NC(=O)c2cccc(NC(=O)c3ccco3)c2)c1
48 | 3.21 µM | CCN(Cc1nc2cc(Cl)ccc2c(=O)[nH]1)C(=O)c1cc2c(s1)CCCCC2
49 | 9.38 µM | Cc1nc(SCc2nc3ccccc3[nH]2)c2oc3cc(Br)ccc3c2n1
50 | 0.91 µM | COC(=O)c1cccc(Cn2ccc3ccc(-c4ccc5ccn(C(=O)c6ccccc6OC)c5c4)cc32)c1
51 | 1.14 µM | c1ccc(N(c2ccccc2)c2nc(N3CCCC3)nc(-n3ccnc3)n2)cc1
